Values after ≈ are worked out from the molar mass of the structure shown. Read-outs that look alike come from different tables or passages of the source. Marks after values point to notes of the source that are not given here.
What was measured:
CF patients = settings: cited from earlier work
PA = settings: cited from earlier work
[1] = system: Pseudomonas aeruginosa (PA) isolates; experiment: Clinical Trial I: MIC for PA isolates; type: cell-based; settings: for MIC50 / MIC90 / MIC: Pseudomonas aeruginosa
[2] = Clinical Trial II: sputum and plasma aztreonam concentrations; type: in vivo; settings: human, sputum, inhaled, 75 mg, sputum aztreonam concentration, median (range), 10 minutes postdose
[3] = system: Pseudomonas aeruginosa (PA) isolates; experiment: Clinical Trial II: MIC of aztreonam for PA isolates; type: cell-based
[4] = Colistin, N = 62, 80 BID/28 days

## Colistin
CF patients; [4]
  FEV1 Change (relative change in FEV1 % predicted, comparison to control after 28 days of therapy): 0%^b
PA; [4]
  PA Density Change (Log10): −0.6 Log10

## C[C@H]1[C@H](NC(=O)/C(=N\OC(C)(C)C(=O)O)c2csc(N)n2)C(=O)N1S(=O)(=O)O [aztreonam]
[1]; 0 h, read-out: MIC50 of aztreonam for all PA isolates, isolates of AZLI-BID group, Day 0
  MIC50: 2 µg/mL (≈ 4.59 µM)
[1]; 0 h, read-out: MIC50 of aztreonam for all PA isolates, isolates of AZLI-Pooled group, Day 0
  MIC50: 2 µg/mL (≈ 4.59 µM)
[1]; 0 h, read-out: MIC50 of aztreonam for all PA isolates, isolates of AZLI-TID group, Day 0
  MIC50: 2 µg/mL (≈ 4.59 µM)
[1]; 0 h, read-out: MIC50 of aztreonam for all PA isolates, isolates of Placebo group, Day 0
  MIC50: ≤ 1 µg/mL
[1]; 0 h, read-out: MIC90 of aztreonam for all PA isolates, isolates of AZLI-BID group, Day 0
  MIC90: 64 µg/mL (≈ 147 µM)
[1]; 0 h, read-out: MIC90 of aztreonam for all PA isolates, isolates of AZLI-Pooled group, Day 0
  MIC90: 32 µg/mL (≈ 73.5 µM)
[1]; 0 h, read-out: MIC90 of aztreonam for all PA isolates, isolates of AZLI-TID group, Day 0
  MIC90: 32 µg/mL (≈ 73.5 µM)
[1]; 0 h, read-out: MIC90 of aztreonam for all PA isolates, isolates of Placebo group, Day 0
  MIC90: 64 µg/mL (≈ 147 µM)
[1]; 0 h, read-out: Maximum MIC of aztreonam for all PA isolates, isolates of AZLI-BID group, Day 0
  MIC: > 2050 µg/mL
[1]; 0 h, read-out: Maximum MIC of aztreonam for all PA isolates, isolates of AZLI-Pooled group, Day 0
  MIC: > 2050 µg/mL
[1]; 0 h, read-out: Maximum MIC of aztreonam for all PA isolates, isolates of AZLI-TID group, Day 0
  MIC: 1020 µg/mL
[1]; 0 h, read-out: Maximum MIC of aztreonam for all PA isolates, isolates of Placebo group, Day 0
  MIC: 1020 µg/mL
[1]; 0 h, read-out: Minimum MIC of aztreonam for all PA isolates, isolates of AZLI-BID group, Day 0
  MIC: ≤ 1 µg/mL
[1]; 0 h, read-out: Minimum MIC of aztreonam for all PA isolates, isolates of AZLI-Pooled group, Day 0
  MIC: ≤ 1 µg/mL
[1]; 0 h, read-out: Minimum MIC of aztreonam for all PA isolates, isolates of AZLI-TID group, Day 0
  MIC: ≤ 1 µg/mL
[1]; 0 h, read-out: Minimum MIC of aztreonam for all PA isolates, isolates of Placebo group, Day 0
  MIC: ≤ 1 µg/mL
[2]; Day 0
  concentration at 10 min: 530000 ng/g
[2]; Day 14
  concentration at 10 min: 677000 ng/g
[2]; Day 28
  concentration at 10 min: 451000 ng/g
[3]; read-out: MIC50 of aztreonam for all PA isolates, isolates of AZLI group, baseline
  MIC50: 4 µg/mL
[3]; read-out: MIC50 of aztreonam for all PA isolates, isolates of Placebo group, baseline
  MIC50: 2 µg/mL
[3]; read-out: MIC90 of aztreonam for all PA isolates, isolates of AZLI group, baseline
  MIC90: 128 µg/mL
[3]; read-out: MIC90 of aztreonam for all PA isolates, isolates of Placebo group, baseline
  MIC90: 64 µg/mL
[3]; read-out: Maximum MIC of aztreonam for all PA isolates, isolates of AZLI group, baseline
  MIC: > 2050 µg/mL
[3]; read-out: Maximum MIC of aztreonam for all PA isolates, isolates of Placebo group, baseline
  MIC: 256 µg/mL
[3]; read-out: Minimum MIC of aztreonam for all PA isolates, isolates of Placebo group, baseline
  MIC: ≤ 1 µg/mL

## NC[C@H]1O[C@H](O[C@H]2[C@H](O)[C@@H](O[C@H]3O[C@H](CO)[C@@H](O)[C@H](N)[C@H]3O)[C@H](N)C[C@@H]2N)[C@H](N)C[C@@H]1O [tobramycin]
[1]; Days −28 to 56
  MIC50 and MIC90 of tobramycin for PA isolates, change: ≤ 4 fold
[1]; isolates of AZLI-BID group, Day −28, read-out: MIC50 of tobramycin for all PA isolates
  MIC50: 1 µg/mL (≈ 2.14 µM)
[1]; isolates of AZLI-BID group, Day −28, read-out: MIC90 of tobramycin for all PA isolates
  MIC90: 16 µg/mL (≈ 34.2 µM)
[1]; isolates of AZLI-Pooled group, Day −28, read-out: MIC50 of tobramycin for all PA isolates
  MIC50: 1 µg/mL (≈ 2.14 µM)
[1]; isolates of AZLI-Pooled group, Day −28, read-out: MIC90 of tobramycin for all PA isolates
  MIC90: 32 µg/mL (≈ 68.4 µM)
[1]; isolates of AZLI-TID group, Day −28, read-out: MIC50 of tobramycin for all PA isolates
  MIC50: 2 µg/mL (≈ 4.28 µM)
[1]; isolates of AZLI-TID group, Day −28, read-out: MIC90 of tobramycin for all PA isolates
  MIC90: 64 µg/mL (≈ 137 µM)
[1]; isolates of Placebo group, Day −28, read-out: MIC50 of tobramycin for all PA isolates
  MIC50: 2 µg/mL (≈ 4.28 µM)
[1]; isolates of Placebo group, Day −28, read-out: MIC90 of tobramycin for all PA isolates
  MIC90: 256 µg/mL (≈ 548 µM)
CF patients; 600 TID, N = 36
  FEV1 Change (absolute change in FEV1 % predicted, comparison to control after 28 days of therapy): 10%^a
PA; Tobramycin 600 TID, N = 36
  PA Density Change (Log10): −2.0 Log10

B1: Pulmozyme: Pulmozyme registration trial comparator (protein, UniProt P24855 23-282, looked up)
Deoxyribonuclease-1: LKIAAFNIQTFGETKMSNATLVSYIVQILSRYDIALVQEVRDSHLTAVGKLLDNLNQDAPDTYHYVVSEPLGRNSYKERYLFVYRPDQVSAVDSYYYDDGCEPCGNDTFNREPAIVRFFSRFTEVREFAIVPLHAAPGDAVAEIDALYDVYLDVQEKWGLEDVMLMGDFNAGCSYVRPSQWSSIRLWTSPTFQWLIPDSADTTATPTHCAYDRIVVAGMLLRGAVVPDSALPFNFQAAYGLSDQLAQAISDHYPVEVMLK
CF patients; 2.5 mg BID/24 weeks
  FEV1 Change (percent change in FEV1 (L), comparison to control after 24 weeks of therapy): 5.8 ± 0.7^c %
CF patients; 2.5 mg TID/24 weeks
  FEV1 Change (percent change in FEV1 (L), comparison to control after 24 weeks of therapy): 5.6 ± 0.7^c %
